Experimental data taken from article PMC7139703, “Thiopurine Derivative-Induced Fpg/Nei DNA Glycosylase Inhibition: Structural, Dynamic and Functional Insights” (International Journal of Molecular Sciences, 2020).
Like-named read-outs stand apart in the source and are kept apart here.

Assays:
LlFpg/DNA complex C1 = biological target: T1, LlFpg/DNA complex C1 (Lactococcus lactis subsp. cremoris, UniProt P42371); assay: EMSA, Fpg DNA binding to 14-mer [THF:C] duplex, complex C1 (lesion recognition complex, Fpg/DNA 1/1); details: for IC50: 0.1 nM 14-mer [THF:C], preformed complex; for IC50 / number of TXn equivalents per one protein equivalent for 50% inhibition of DNA binding activity, C1: 0.25 nM Fpg; for effect on stability of complex C1 in the presence of TCEP: [1/1] molar ratio TCEP/compound (1 mM each), Figure S6; for number of TXn equivalents per one protein equivalent for 50% inhibition of DNA binding activity, C1: value in parentheses
T1 construct: made in house; host or cells: E. coli BH540 (fpg defective)
Source text: To complement this study, we examined the effect of TXn on the binding of Fpg to a short DNA duplex containing a tetrahydrofuran (THF), a non-cleavable AP site analog. The enzyme specifically recognizes THF and forms a stable abortive complex with DNA [18, 34, 35, 36]. […] A representative titration experiment (with and without TCEP) of the 14-mer [THF:C] Fpg formed two stable complexes with this short DNA probe that were easily observed by EMSA: a high-affinity complex C1 corresponding to the lesion recognition complex (LRC), with nanomolar affinity, and a complex C2 only observed at higher Fpg concentrations. C2 results in C1 titration by a second Fpg molecule. This finding illustrates that the crystal structure of Fpg bound to 8-oxoG-carbanucleotide-containing DNA [38] (Figure S5). The stability of each preformed complex was then examined by EMSA in the presence of 2TX or TXn. […] The enzyme inactivation mediated by 2TX through ZnF oxidation that directly affects the DNA binding properties of the enzyme is also in agreement with this last observation.
Figure 2 The effect of 2TX and TXn on Fpg DNA binding to abasic site-containing DNA. A 14-mer DNA duplex containing a tetrahydrofurane (THF) site as an abasic site analog was incubated with a limiting Fpg concentration (0.25 nM) with and without increasing concentrations of TXn. Incubation mixtures were then analyzed by electrophoretic mobility shift assay (EMSA), as described in the ‘Materials and Methods’. (a) Titration experiments with (+) and without (-) 2 mM tris(2-carboxyethyl)phosphine hydrochloride (TCEP) C1 and C2 are for the [1/1] and [2/1] Fpg/DNA complexes, respectively (see detailed in the text). (b) Fpg DNA binding concentration-dependence for 2TX and the more efficient TXn inhibitors. A representative EMSA autoradiography with 0.25 nM of Fpg alone (lane no) and 0.5, 2.5, 5, 10, 20, 40, 50, 250, 1000 µM is shown in the upper panel. IC50app^B corresponds to the TXn amount needed to halve the C1 complex formation and was extracted from the dose-response curves (lower panel; Table 1).
The DNA binding activity was measured using EMSA [37]. Briefly, 0.1 nM of the 5′-labeled 14-mer [THF:C] (see above) was incubated with the enzyme at 4 °C for 30 min in 25 mM HEPES/NaOH (pH 7.5), 150 mM NaCl, 5% glycerol, 0.1 mg/mL BSA and 8% DMSO. The incubation mixture was then loaded onto a native 10% polyacrylamide gel (Acryl/Bis 19/1) and electrophoresed at 25 V/cm for 90 min at 4 °C. After electrophoresis, the gels were dried and exposed overnight for autoradiography using a Typhoon imager and quantified with ImageQuant software. To evaluate the inhibitor effect of 2TX/TXn on the DNA binding activity of each Fpg/Nei enzyme, we first determined the experimental conditions required to bind 50% of the DNA probes without an inhibitor in the presence of 8% DMSO (limiting enzyme concentration). Under these conditions, we obtained the half-maximal DNA binding 0.25, 7 and 5 nM of Fpg, hNeil1 and mvNei1. We used this limited enzyme concentrations to evaluate the inhibitor effect of 2TX/TXn on the enzyme DNA binding activity. This effect was determined by the addition of the thio-compound in the pre-equilibrium mixture of the enzyme and DNA probe (30 min) and incubated for an additional 30 min at 4 °C. For the best inhibitors of Fpg, a dose-response curve was established from at least three independent experiments and the IC50 was determined (IC50^B, Table 1).

hNeil1 = hNeil1 (Homo sapiens, UniProt Q96FI4); assay: hNeil1 DNA glycosylase/AP lyase activity assay on DHU:G 24-mer duplex; format: biochemical; design: Overproduction was performed as described above for full length hNeil1; 6His (C); made in house; host or cells: E. coli Rosetta2 (DE3); details: for effect on hNeil1 catalytic activity: 0.2 mM compound
Procedure: Figure 4 Comparative analysis of the effect of 2TX and TXn on Fpg/Nei DNA glycosylases. Enzyme activities were measured as described in the Figure 1 legend using […] of a 5′-[^32P]-24-mer DNA duplex containing either an 8-oxoG opposite C for LlFpg or a […] (DHU) opposite G for hNeil1 and mvNei1. The DNA probe was incubated with the indicated protein concentration and 0.2 mM TXn compounds in the presence or absence of 1 mM dithiothreitol (DTT) and TCEP (a representative experiment is illustrated by the upper histograms). The DNA probe for EMSA was 0.1 nM of 5′-[^32P]-[…] DNA duplex containing THF with LlFpg and mvNei1 (bottom panels: gel autoradiography) with the indicated conditions and as described in ‘Materials and Methods’.
Fpg, hNeil1 and mvNei1 are bifunctional DNA glycosylases associated with concerted DNA glycosylase activity (cleavage of the N-glycosidic bond between the base lesion and the C1′ of the deoxyribose) and AP lyase activity that comprises the successive cleavage of the phosphodiester bonds at the 3′ and 5′ of the resulting abasic (AP) site, respectively (β, δ-elimination). Thus, AP sites that result from the excision of the damaged base are quantitatively converted into one nucleoside gap by these enzymes. The DNA glycosylase/AP lyase activity of each enzyme was measured by incubating 20 nM of 24-mer DNA duplexes ([OG:C] and [DHU:G] for Fpg and hNeil1/mvNei1, respectively) 5′-labeling on the damaged strand (see above) with 2 nM of Fpg, or mvNei1 for 15 min or, with 20 nM of hNeil1 for 30 min at 37 °C in 10 mM Tris-HCl, pH 7.6, 150 mM NaCl, 1 mM EDTA, 0.1 mg/mL BSA and 8% DMSO. The reaction was stopped by the addition of 1 volume of formamide loading buffer (96% formamide, 20 mM Tris/HCl pH 8.0 and 2 mM Na2EDTA), heated at 80 °C for 2 min and then analyzed by 20% Urea-PAGE, as previously described. […] Under these conditions, only 50% of the substrate is converted to the cleavage product (limiting enzyme concentration conditions). For an initial evaluation of the inhibitory effect, 40 µM of 2TX/TXn was used. The thio-compound was added to the reaction mixture before the final addition of the enzyme (competition condition). For the best identified inhibitors, a dose-response curve was generated and IC50^A determined (Figure 1 and Table 1).

[1] = DNA binding at 4 °C, read-out: IC50app^B (Fpg DNA binding) C1
[2] = catalytic activity at 37 °C, compound stock in DMSO, DHU:G 24-mer, read-out: IC50app^A (Fpg/Nei enzyme catalysis) hNEIL1
[3] = IC50app^B (Fpg DNA binding) C1, DNA binding at 4 °C

T1 sequence (P42371 2-273, one chain of several): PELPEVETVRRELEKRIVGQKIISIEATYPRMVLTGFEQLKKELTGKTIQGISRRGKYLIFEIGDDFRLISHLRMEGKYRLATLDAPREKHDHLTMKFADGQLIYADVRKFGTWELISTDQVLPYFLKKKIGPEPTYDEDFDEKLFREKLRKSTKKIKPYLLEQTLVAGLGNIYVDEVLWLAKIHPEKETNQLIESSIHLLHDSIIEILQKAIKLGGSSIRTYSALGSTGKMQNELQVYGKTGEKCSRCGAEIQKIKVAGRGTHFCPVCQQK
Sequence of hNeil1 (Q96FI4 whole entry): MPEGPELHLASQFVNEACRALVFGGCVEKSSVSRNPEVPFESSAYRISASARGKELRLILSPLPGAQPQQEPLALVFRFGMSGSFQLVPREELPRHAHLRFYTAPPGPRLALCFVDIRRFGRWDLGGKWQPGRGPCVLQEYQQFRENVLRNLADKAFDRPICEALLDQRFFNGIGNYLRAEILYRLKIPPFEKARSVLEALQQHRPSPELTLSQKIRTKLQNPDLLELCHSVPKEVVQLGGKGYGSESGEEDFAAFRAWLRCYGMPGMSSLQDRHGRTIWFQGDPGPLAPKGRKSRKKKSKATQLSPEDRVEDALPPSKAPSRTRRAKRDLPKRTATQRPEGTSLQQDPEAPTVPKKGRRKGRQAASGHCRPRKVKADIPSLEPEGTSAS

SMILES	IC50 (LlFpg/DNA complex C1; [1]) [µM]	effect on hNeil1 catalytic activity (hNeil1; Figure 4)	IC50 (hNeil1; [2]) [µM]	effect on stability of complex C1 in the presence of TCEP (LlFpg/DNA complex C1)	number of TXn equivalents per one protein equivalent for 50% inhibition of DNA binding activity, C1 (LlFpg/DNA complex C1)	IC50 (hNeil1) [µM]	IC50 (LlFpg/DNA complex C1; [3]) [µM]	inhibition of hNeil1 DNA binding and catalytic activities in the presence of TCEP (hNeil1; 1 mM TCEP (DTT to a lesser extent), Figure 4)
O=c1[nH]c(=S)[nH]c2nc[nH]c12 [Compound 2TX, 2-thioxanthine, reference compound]	113 ± 17	did not significantly affect	> 500	–	–	–	–	–
FC(F)(F)c1nc(S)c2nc[nH]c2n1 [TX13, 2-trifluoromethyl-6-thiopurine]	6.1 ± 0.5	–	–	remained stable	98	> 250	–	–
O=c1[nH]c2[nH]c(=S)[nH]c(=O)c2[nH]1 [TX14, 2-thio-6,8-dioxopurine]	–	–	> 500	–	100	–	25.1 ± 2.4	–
O=c1[nH]c(=S)[nH]c2[nH]c(=S)[nH]c12 [TX19]	17.1 ± 2.4	apparent inhibitory effects	19 ± 1	–	68	–	–	suppressed
Nc1ncnc2[nH]c(S)nc12 [TX27]	–	–	160 ± 16	remained stable	177	–	44.2 ± 8	–
